The subject of series [1] is HaCaT cells. The series is described as follows: Cytotoxicity / cell number by alamar blue fluorescence in HaCaT cells. The series is classed as cell-based, human. To be noted: aromatic final concentration 0.001% to 0.01%, 48 hours, alamar blue (Ex: 544 nm, Em: 590 nm). The method, then: (§1) Human-derived cultured cells in the form of HaCaT cells (German Cancer Research Center, Heidelberg, Germany) were cultured in DMEM medium (Gibco Low Glucose DMEM™, Life Technologies Inc.) containing 10% FBS (Standard Fetal Bovine Serum, Hyclone Laboratories Inc.) and disseminated in a 24-well plate to 15×10^4 cells/well. The medium was replaced with serum-free DMEM 24 hours after dissemination followed by culturing for 24 hours. Subsequently, each aromatic dissolved in ethanol was added (aromatic final concentration: 0.001% to 0.01%). Ethanol was used as a control. The culture supernatant was recovered after culturing for 48 hours and the amount of VEGFC in the culture supernatant was quantified in accordance with the protocol of an ELISA kit (Quanikine® Human VEGF-C Immunoassay (R&D Systems Inc., Minneapolis, Minn.)). In addition, alamar blue (TREK Diagnostic Systems, Inc., Cleveland, US) was added to the cells after recovering the culture supernatant followed by measuring the number of cells based on their fluorescence intensity (Ex: 544 nm, Em: 590 nm). The amount of VEGFC in the supernatant was divided by fluorescence intensity, and the relative VEGFC-inducing activity per cell based on a value of 100 for the control (ethanol) is shown in FIG. 1.
For orientation: Alamar Blue is a resazurin reagent that responds to reducing activity.

For series [2], the system named is VEGFC. As to the kind of experiment: VEGFC-inducing activity in HaCaT cells (VEGF-C ELISA of culture supernatant, normalised to cell number). The series is classed as cell-based, human. As to conditions: aromatic final concentration 0.001% to 0.01%, 48 hours culture, ELISA of supernatant divided by alamar blue fluorescence, values only in FIG. 1. As to the method: As is described in detail in the subsequent examples, screening for agents that induce a lymph vessel activating factor in the form of VEGFC was carried out by allowing various types of candidate aromatics to act on human epidermis-derived cultured cells in the form of HaCaT cells, quantifying VEGFC, and selecting aromatics having VEGFC-inducing activity as active ingredients by using the amount of VEGFC as an indicator of VEGFC-inducing activity.
as §1, with “Subsequently, each aromatic dissolved in ethanol was added (aromatic final concentration: 0.001% to 0.01%). Ethanol was used as a control.” left out, “The amount of VEGFC in the supernatant was divided by fluorescence intensity, and the relative VEGFC-inducing activity per cell based on a value of 100 for the control (ethanol) is shown in FIG. 1.” left out
On the technique in general: In an ELISA, binding on a coated surface is turned into a signal by an enzyme label.

For `CC(=O)OCCC(C)CCC=C(C)C` (stereo not shown) [citronellyl acetate, Citronellyl acetate], the cytotoxicity result in series [1] is “without demonstrating cytotoxicity”. For the same compound, in series [2], the “relative VEGFC-inducing activity per cell based on a value of 100 for the control (ethanol)” value was “demonstrated VEGFC-inducing activity”.

As to `CC(C)=CC1CC(C)CCO1` (stereo not shown) [rose oxide, Rose oxide], the cytotoxicity entry in series [1] is “without demonstrating cytotoxicity”. Besides, the “relative VEGFC-inducing activity per cell based on a value of 100 for the control (ethanol)” value in series [2] is “demonstrated VEGFC-inducing activity”.

(Values after patent US10624829B2, “VEGFC production promoter” (Shiseido Company, Ltd., priority 2012, dated 2020).)
